What was measured:
[1] = system: HIV pseudotyped virus (NL4-3 provirus), M184V; format: cell-based; details: PSV assay; U373 cells expressing human CD4 and CXCR4 or CCR5; luciferase signal after 3 days of culture
[2] = system: HIV pseudotyped virus (NL4-3 provirus), WT; assay: PSV assay (pseudotyped virus assay), WT; details: Human immunodeficiency virus 1, NL43, in Homo sapiens, 72 h, read-out: WT IC50 (μM), PSV assay; U373 cells expressing human CD4 and CXCR4 or CCR5; luciferase signal after 3 days of culture
From the text: A pseudotyped virus assay (PSV) was used to assess the potency of the HIV inhibitor. Replication defective virus was produced by co-transfection of a plasmid containing an NL4-3 provirus [containing a mutation in the envelope open reading frame (ORF) and a luciferase reporter gene replacing the nef ORF] and a CMV-promoter expression plasmid containing an ORF for various HIV gp160 envelope clones. The harvested virus was stored at −80 C in small aliquots and the titer of the virus measured to produce a robust signal for antiviral assays.
The PSV assay was performed by using U373 cells stably transformed to express human CD4, the primary receptor for HIV entry and either human CXCR4 or human CCR5 which are the co-receptors required for HIV entry as target cells for infection. […] This dose-range was applied to U373 cells and the pre-made pseudotyped virus added. The amount of luciferase signal produced after 3 days of culture was used to reflect the level of pseudotyped virus infection. An IC50, or the concentration of inhibitor required to reduce PSV infection by 50% from the infection containing no inhibitor was calculated. […] IC50 values were determined from a 10 point dose response curve using 3-4-fold serial dilution for each compound, which spans a concentration range >1000 fold.

C#C[C@]1(COC(=O)OC2COC(=O)CCCCCCCCCCCC(=O)OC2)O[C@@H](n2cnc3c(N)nc(F)nc32)C[C@@H]1O [Example 10, ((2R,3S,5R)-5-(6-amino-2-fluoro-9H-purin-9-yl)-2-ethynyl-3-hydroxytetrahydrofuran-2-yl)methyl (6,18-dioxo-1,5-dioxacyclooctadecan-3-yl) carbonate]
IC50 [1]: 0.0313 µM
IC50 [2]: 0.0097 µM

C#C[C@]1(CO)O[C@@H](n2cnc3c(N)nc(F)nc32)C[C@@H]1OC(=O)OCc1ccc(OC(=O)CCCCCCCCCCCCCCCCCCC)cc1 [Example 11, 4-((((((2R,3S,5R)-5-(6-amino-2-fluoro-9H-purin-9-yl)-2-ethynyl-2-(hydroxymethyl)tetrahydrofuran-3-yl)oxy)carbonyl)oxy)methyl)phenyl icosanoate]
IC50 [1]: 3.21 µM
IC50 [2]: 2.31 µM

C#C[C@]1(CO)O[C@@H](n2cnc3c(N)nc(F)nc32)C[C@@H]1OC(=O)OCc1ccc(OC(=O)CCCCCCCCCCCCC)cc1 [Example 12, 4-((((((2R,3S,5R)-5-(6-amino-2-fluoro-9H-purin-9-yl)-2-ethynyl-2-(hydroxymethyl)tetrahydrofuran-3-yl)oxy)carbonyl)oxy)methyl)phenyl tetradecanoate]
IC50 [1]: 0.0663 µM
IC50 [2]: 0.017 µM

C#C[C@]1(COC(=O)OCc2ccc(OC(=O)CCCCCCCCCCCCC)cc2)O[C@@H](n2cnc3c(N)nc(F)nc32)C[C@@H]1O [Example 13, 4-((((((2R,3S,5R)-5-(6-amino-2-fluoro-9H-purin-9-yl)-2-ethynyl-3-hydroxytetrahydrofuran-2-yl)methoxy)carbonyl)oxy)methyl)phenyl tetradecanoate]
IC50 [1]: 0.0178 µM
IC50 [2]: 0.0072 µM

C#C[C@]1(COC(=O)OCc2ccc(OC(=O)CCCCCCCCCCCCCCCCCCC)cc2)O[C@@H](n2cnc3c(N)nc(F)nc32)C[C@@H]1O [Example 14, 4-((((((2R,3S,5R)-5-(6-amino-2-fluoro-9H-purin-9-yl)-2-ethynyl-3-hydroxytetrahydrofuran-2-yl)methoxy)carbonyl)oxy)methyl)phenyl icosanoate]
IC50 [1]: 2.41 µM
IC50 [2]: 1.55 µM

C#C[C@]1(CO)O[C@@H](n2cnc3c(N)nc(F)nc32)C[C@@H]1OC(=O)NCCCCCCCCCCCC [Example 15, (2R,3S,5R)-5-(6-amino-2-fluoro-9H-purin-9-yl)-2-ethynyl-2-(hydroxymethyl)tetrahydrofuran-3-yl dodecylcarbamate]
IC50 [1]: > 15 µM
IC50 [2]: > 15 µM

C#C[C@]1(CO)O[C@@H](n2cnc3c(N)nc(F)nc32)C[C@@H]1OC(=O)NCCCCCCCCCCCCCCCCCC [Example 16, (2R,3S,5R)-5-(6-amino-2-fluoro-9H-purin-9-yl)-2-ethynyl-2-(hydroxymethyl)tetrahydrofuran-3-yl octadecylcarbamate]
IC50 [1]: 22.4 µM
IC50 [2]: 15 µM

C#C[C@]1(CO)O[C@@H](n2cnc3c(N)nc(F)nc32)C[C@@H]1OC(=O)NCCCCCCCC [Example 17, (2R,3S,5R)-5-(6-amino-2-fluoro-9H-purin-9-yl)-2-ethynyl-2-(hydroxymethyl)tetrahydrofuran-3-yl octylcarbamate]
IC50 [1]: > 15 µM
IC50 [2]: > 15 µM

C#C[C@]1(CO)O[C@@H](n2cnc3c(N)nc(F)nc32)C[C@@H]1OC(=O)NC [Example 18, (2R,3S,5R)-5-(6-amino-2-fluoro-9H-purin-9-yl)-2-ethynyl-2-(hydroxymethyl)tetrahydrofuran-3-yl methylcarbamate]
IC50 [1]: 9.11 µM
IC50 [2]: 2.03 µM

C#C[C@]1(CO)O[C@@H](n2cnc3c(N)nc(F)nc32)C[C@@H]1OC(=O)NCCCCC [Example 19, (2R,3S,5R)-5-(6-amino-2-fluoro-9H-purin-9-yl)-2-ethynyl-2-(hydroxymethyl)tetrahydrofuran-3-yl pentylcarbamate]
IC50 [1]: 9.44 µM
IC50 [2]: 1.77 µM

C#C[C@]1(CO)O[C@@H](n2cnc3c(N)nc(F)nc32)C[C@@H]1OC(=O)NC(C)C [Example 20, (2R,3S,5R)-5-(6-amino-2-fluoro-9H-purin-9-yl)-2-ethynyl-2-(hydroxymethyl)tetrahydrofuran-3-yl isopropylcarbamate]
IC50 [1]: > 25 µM
IC50 [2]: 10.5 µM

C#C[C@]1(CO)O[C@@H](n2cnc3c(N)nc(F)nc32)C[C@@H]1OC(=O)N(CC)CC [Example 21, (2R,3S,5R)-5-(6-amino-2-fluoro-9H-purin-9-yl)-2-ethynyl-2-(hydroxymethyl)tetrahydrofuran-3-yl diethylcarbamate]
IC50 [1]: > 25 µM
IC50 [2]: 14.7 µM

C#C[C@]1(CO)O[C@@H](n2cnc3c(N)nc(F)nc32)C[C@@H]1OC(=O)N1CCC(C)CC1 [Example 22, (2R,3S,5R)-5-(6-amino-2-fluoro-9H-purin-9-yl)-2-ethynyl-2-(hydroxymethyl)tetrahydrofuran-3-yl 4-methylpiperidine-1-carboxylate]
IC50 [1]: > 25 µM
IC50 [2]: 11.7 µM

C#C[C@]1(CO)O[C@@H](n2cnc3c(N)nc(F)nc32)C[C@@H]1OC(=O)NC(C)(C)C [Example 23, (2R,3S,5R)-5-(6-amino-2-fluoro-9H-purin-9-yl)-2-ethynyl-2-(hydroxymethyl)tetrahydrofuran-3-yl tert-butylcarbamate]
IC50 [1]: > 25 µM
IC50 [2]: > 25 µM

C#C[C@]1(CO)O[C@@H](n2cnc3c(N)nc(F)nc32)C[C@@H]1OC(=O)NC1CC1 [Example 24, (2R,3S,5R)-5-(6-amino-2-fluoro-9H-purin-9-yl)-2-ethynyl-2-(hydroxymethyl)tetrahydrofuran-3-yl cyclopropylcarbamate]
IC50 [1]: 3.74 µM
IC50 [2]: 1.48 µM

C#C[C@]1(CO)O[C@@H](n2cnc3c(N)nc(F)nc32)C[C@@H]1OC(=O)NCC(=O)OCC [Example 25, ethyl ((((2R,3S,5R)-5-(6-amino-2-fluoro-9H-purin-9-yl)-2-ethynyl-2-(hydroxymethyl)tetrahydrofuran-3-yl)oxy)carbonyl)glycinate]
IC50 [1]: 1.26 µM
IC50 [2]: 1.18 µM

C#C[C@]1(CO)O[C@@H](n2cnc3c(N)nc(F)nc32)C[C@@H]1OC(=O)NCC(=O)OC(C)(C)C [Example 26, tert-butyl ((((2R,3S,5R)-5-(6-amino-2-fluoro-9H-purin-9-yl)-2-ethynyl-2-(hydroxymethyl)tetrahydrofuran-3-yl)oxy)carbonyl)glycinate]
IC50 [1]: 17.3 µM
IC50 [2]: 16.1 µM

C#C[C@]1(CO)O[C@@H](n2cnc3c(N)nc(F)nc32)C[C@@H]1OC(=O)NCC(=O)OCCCCC [Example 27, pentyl ((((2R,3S,5R)-5-(6-amino-2-fluoro-9H-purin-9-yl)-2-ethynyl-2-(hydroxymethyl)tetrahydrofuran-3-yl)oxy)carbonyl)glycinate]
IC50 [1]: > 25 µM
IC50 [2]: > 25 µM

C#C[C@]1(CO)O[C@@H](n2cnc3c(N)nc(F)nc32)C[C@@H]1OC(=O)OC(COC(C)=O)COC(C)=O [Example 28, 2-(((((2R,3S,5R)-5-(6-amino-2-fluoro-9H-purin-9-yl)-2-ethynyl-2-(hydroxymethyl)tetrahydrofuran-3-yl)oxy)carbonyl)oxy)propane-1,3-diyl diacetate]
IC50 [1]: 0.0392 µM
IC50 [2]: 0.0106 µM

C#C[C@]1(CO)O[C@@H](n2cnc3c(N)nc(F)nc32)C[C@@H]1OC(=O)OC(COC(=O)CCCC)COC(=O)CCCC [Example 29, 2-(((((2R,3S,5R)-5-(6-amino-2-fluoro-9H-purin-9-yl)-2-ethynyl-2-(hydroxymethyl)tetrahydrofuran-3-yl)oxy)carbonyl)oxy)propane-1,3-diyl dipentanoate]
IC50 [1]: 0.0283 µM
IC50 [2]: 0.0077 µM

C#C[C@]1(CO)O[C@@H](n2cnc3c(N)nc(F)nc32)C[C@@H]1OC(=O)OC(COC(=O)CCCCCCCC)COC(=O)CCCCCCCC [Example 30, 2-(((((2R,3S,5R)-5-(6-amino-2-fluoro-9H-purin-9-yl)-2-ethynyl-2-(hydroxymethyl)tetrahydrofuran-3-yl)oxy)carbonyl)oxy)propane-1,3-diyl dinonanoate]
IC50 [1]: 0.0293 µM
IC50 [2]: 0.0077 µM

C#C[C@]1(CO)O[C@@H](n2cnc3c(N)nc(F)nc32)C[C@@H]1OC(=O)OC1COC(=O)CCCCCCCCCCCC(=O)OC1 [Example 31, (2R,3S,5R)-5-(6-amino-2-fluoro-9H-purin-9-yl)-2-ethynyl-2-(hydroxymethyl)tetrahydrofuran-3-yl (6,18-dioxo-1,5-dioxacyclooctadecan-3-yl) carbonate]
IC50 [1]: 0.0478 µM
IC50 [2]: 0.0151 µM

C#C[C@]1(CO)O[C@@H](n2cnc3c(NC(=O)OC(COC(=O)CCCC)COC(=O)CCCC)nc(F)nc32)C[C@@H]1O [Example 32, 2-(((9-((2R,4S,5R)-5-ethynyl-4-hydroxy-5-(hydroxymethyl)tetrahydrofuran-2-yl)-2-fluoro-9H-purin-6-yl)carbamoyl)oxy)propane-1,3-diyl dipentanoate]
IC50 [1]: 0.0269 µM
IC50 [2]: 0.0075 µM

C#C[C@]1(CO)O[C@@H](n2cnc3c(NC(=O)OC(COC(=O)CCCCCCCC)COC(=O)CCCCCCCC)nc(F)nc32)C[C@@H]1O [Example 33, 2-(((9-((2R,4S,5R)-5-ethynyl-4-hydroxy-5-(hydroxymethyl)tetrahydrofuran-2-yl)-2-fluoro-9H-purin-6-yl)carbamoyl)oxy)propane-1,3-diyl dinonanoate]
IC50 [1]: 0.0243 µM
IC50 [2]: 0.0054 µM

C#C[C@]1(CO)O[C@@H](n2cnc3c(NC(=O)OC4COC(=O)CCCCCCCCCCCC(=O)OC4)nc(F)nc32)C[C@@H]1O [Example 34, 6,18-dioxo-1,5-dioxacyclooctadecan-3-yl (9-((2R,4S,5R)-5-ethynyl-4-hydroxy-5-(hydroxymethyl)tetrahydrofuran-2-yl)-2-fluoro-9H-purin-6-yl)carbamate]
IC50 [1]: 0.0678 µM
IC50 [2]: 0.0132 µM

Reference: patent publication US20220298160A1, “COMPOUNDS USEFUL IN HIV THERAPY” (priority 2019, published 2022)
